The subject of one data set is lamin A in A549 cells. Briefly: Immunofluorescence, mouse anti-lamin A, A549 cells (FIG. 15). In kind it is cell-based. As to conditions: GAM conjugates at 4× to 12× molar excess. On the procedure:
The inventive compounds were evaluated for immunofluorescence in cell based assays using the following protocol. Frozen A549 cell plates stored at −20° C. were placed for 30 min 50° C. Storage buffer (PBS) was removed and the cells were permeabilized for 15 min (100 μl/well) with 0.1% Triton-X100 in 1×PBS buffer. Plates were blocked for 30 min in 2% BSA in 1×PBS-0.1% Trion-X100. Primary antibodies diluted in 2% BSA in 1×PBS-0.1% Trion-X100 were added to the plates (column 1-11; column 12 included only blocker) and incubated […]. Mouse anti-lamin A was added at 1 μg/ml and rabbit anti-lamin B1 was added at 3 μg/ml. After overnight incubation, the antibody solution was removed from the plates and the plates were washed with PBS-0.5% Tween-20 (2×100 μl/well). GAM and GAR secondary antibodies labeled with DyLight 680-NHS, DyLight 680B-NHS, 679 Compound 1-NHS and Company B Compound-NHS were diluted to 4 μg/ml in PBS, added and incubated for one hour at room temperature. The plates were then washed three times with 100 μl/well PBS, and Hoechst stain diluted to 0.1 μg/ml in PBS was added to each well (100 μl/well). The plates were scanned on ArrayScan Plate Reader for imaging and quantitation.

Data set [1] is described as follows: Absorbance/emission spectral properties and fluorescence intensity of the dyes. As to conditions: 10 μg/ml in PBS buffer pH 7.2, FIG. 1. In kind it is physicochemical. On the procedure:
Emission/excitation profiles for inventive and commercial compounds was determined by reconstituting the compounds in DMF at 10 mg/ml and then diluting in PBS buffer pH 7.2 to 10 μg/ml.

Another data set concerns lamin B1 in U20S cells. Briefly: Immunofluorescence, rabbit anti-lamin B1, U20S cells, GAR conjugates. In kind it is cell-based. On the procedure: The inventive compounds and commercial dye were evaluated for immunofluorescence in a second cell based assay using the following protocol. Frozen U20S cell plates stored at −20° C. were placed overnight at 4° C. Storage buffer (PBS) was removed and the cells were permeabilized for 15 min (100 μl/well) with 0.1% Triton-X100 in 1×PBS buffer. Plates were blocked for 30 min in 2% BSA in 1×PBS-0.1% Trion-X100. Primary antibodies diluted in 2% BSA in 1×PBS-0.1% Trion-X100 were added to the plates (column 1-11; column 12 included only blocker) and incubated five hours at room temperature. Mouse anti-lamin A was added at 2 μg/ml and rabbit anti-lamin B1 was added at 4 μg/ml. After incubation, the antibody solution was removed from the plates and the plates were washed PBS-0.5% Tween-20 (2×100 μl/well). Next, GAM and GAR secondary antibodies labeled with DyLight 680-NHS, DyLight 680B-NHS, 679 Compound 1-NHS, and Cy5.5 Mono Ester were diluted to 4 μg/ml in PBS and incubated with the cells for one hour at room temperature. […] The plates were scanned on ArrayScan Plate Reader for imaging and quantitation.

The test system of the next data set is lamin A in U20S cells. Kind of data set: Immunofluorescence, mouse anti-lamin A, U20S cells (FIG. 16). In kind it is cell-based. On the procedure:
The inventive compounds and commercial dye were evaluated for immunofluorescence in a second cell based assay using the following protocol. Frozen U20S cell plates stored at −20° C. were placed overnight at 4° C. Storage buffer (PBS) was removed and the cells were permeabilized for 15 min (100 μl/well) with 0.1% Triton-X100 in 1×PBS buffer. Plates were blocked for 30 min in 2% BSA in 1×PBS-0.1% Trion-X100. Primary antibodies diluted in 2% BSA in 1×PBS-0.1% Trion-X100 were added to the plates (column 1-11; column 12 included only blocker) and incubated five hours at room temperature. Mouse anti-lamin A was added at 2 μg/ml and rabbit anti-lamin B1 was added at 4 μg/ml. After incubation, the antibody solution was removed from the plates and the plates were washed PBS-0.5% Tween-20 (2×100 μl/well). Next, GAM and GAR secondary antibodies labeled with DyLight 680-NHS, DyLight 680B-NHS, 679 Compound 1-NHS, and Cy5.5 Mono Ester were diluted to 4 μg/ml in PBS and incubated with the cells for one hour at room temperature. GAM and GAR conjugated to DyLight 680-NHS, DyLight 680B-NHS, 679 Compound 1-NHS, and Company B Compound at 10× molar excess were diluted to 4 μg/ml in PBS and then serially diluted 1:1 in the plate to the following concentrations: 2 μg/ml, 1 μg/ml, 0.5 μg/ml, 0.25 μg/ml, 0.125 μg/ml and/or 0.0625 μg/ml. The plates were washed 3× with 100 μl/well PBS, and Hoechst stain diluted to 0.1 μg/ml in PBS was added to each well (100 μl/well). The plates were scanned on ArrayScan Plate Reader for imaging and quantitation.

The next data set addresses streptavidin (SA) (Streptomyces avidinii, UniProt P22629). Briefly: Labeling efficiency (degree of labeling) of streptavidin. As to the method: Inventive and commercial compounds, each as the NHS ester, were conjugated to goat anti-mouse (GAM) antibodies, goat anti-rabbit (GAR) antibodies, and streptavidin (SA). GAM, GAR, and SA, at a concentration of 10 mg/ml in phosphate buffered saline (PBS), were dialyzed against 50 mM borate buffer, pH 8.5. […]
The labeled compounds, also termed dyes or labels, were subjected to Pierce Dye Removal Resin (PDDR) to remove the unlabeled (free) compound; 100 μl of the packed resin was used per mg of protein purified. The purified antibody-labeled dyes were then diluted 1:50 in PBS and scanned for absorbance from 700 nm to 230 nm to determine the protein concentration, and to determine the mole dye to mole protein ratio. Each conjugate was diluted 1:10 in 50% glycerol and heated in the presence of 10 mM dithiothreitol (DTT) for 5 min at 95° C., then separated by electrophoresis on polyacrylamide gels in the presence of sodium dodecyl sulfate (SDS-PAGE). The gels were scanned using the Typhoon 9400 Imager to verify removal of the unconjugated compound. Labeling efficiency was compared, with results showing degree of labeling below.

Molecules are shown by their SMILES.

Chain of streptavidin (SA) (P22629 25-183, species assumed): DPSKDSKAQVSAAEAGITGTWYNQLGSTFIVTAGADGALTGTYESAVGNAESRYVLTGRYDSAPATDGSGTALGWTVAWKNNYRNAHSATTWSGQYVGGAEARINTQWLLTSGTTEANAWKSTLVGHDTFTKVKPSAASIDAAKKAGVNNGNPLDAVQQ

As to `COCC[N+]1=C(/C=C/C=C/C=C2/N(CCCCCC(=O)O)c3ccc4c(S(=O)(=O)[O-])cc(S(=O)(=O)[O-])cc4c3C2(C)C)C(C)(CCCS(=O)(=O)[O-])c2c1ccc1c(S(=O)(=O)[O-])cc(S(=O)(=O)[O-])cc21.[Na+].[Na+].[Na+].[Na+]` (centres unmarked) [679 Compound 1, 6-((E)-2-((2E,4E)-5-(3-(2-methoxyethyl)-1-methyl-6,8-disulfonato-1-(3-sulfonatopropyl)-1H-benzo[e]indol-3-ium-2-yl)penta-2,4-dien-1-ylidene)-1,1-dimethyl-6,8-disulfonato-1H-benzo[e]indol-3(2H)-yl)hexanoate], the “performance in immunofluorescence (in words)” value with lamin A in A549 cells is “very similar performance to corresponding DyLight 680B conjugates”. The “Max Abs” value in data set [1] (Cary UV spectrophotometer) is on record as 679 nm. Besides, the “Max E” value in data set [1] (emission, Tecan Safire) was 704 nm. Besides, the “Overall fluorescence signal intensity (in words)” value in the data set on lamin B1 in U20S cells (GAR conjugates) is listed as “about two times higher compared to DyLight 680”. Further, the “S/B (in words)” value in the data set on lamin B1 in U20S cells (GAR labeled at 2×, 3× or 4× molar excess) is “comparable to each other and to DyLight 680 conjugates”; in the data set on lamin A in U20S cells (GAM conjugates at the low molar excesses) it was “comparable to each other and to DyLight 680”. In addition, in the data set on lamin A in U20S cells (GAM conjugated at 2X molar excess, FIG. 16), the “Mean Total Intensity 2X” value worked out at 232482. Also, in the data set with lamin A in U20S cells (GAM conjugated at 3X molar excess, FIG. 16), the “Mean Total Intensity 3X” value turned out to be 263580. Also, in the data set with lamin A in U20S cells (GAM conjugated at 4X molar excess, FIG. 16), the “Mean Total Intensity 4X” value was 330865. The degree of labeling was 4.0 on streptavidin (SA) (SA-6X molar excess) and 5.0 on streptavidin (SA) (SA-8X molar excess).

Source of the values: patent US10730857B2, “Benzocyanine compounds” (Pierce Biotechnology, Inc., priority 2011, dated 2020).
